Measurements published in ChEMBL document CHEMBL4184274 (Bioorg Med Chem Lett, 2018).

Assay: in vivo
Conditions: rat, 5 mg/kg

## CCN1CCN(Cc2ccc(Nc3ncc(F)c(-c4cc(F)c5nc(C)n(C(C)C)c5c4)n3)nc2)CC1 [ABEMACICLIB]
  AUC: 3280 ng·h/mL
